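96-well plates; 48 h exposure; 5 concentrations. Endpoints by linear interpolation between flanking doses. Not reached: highest tested concentration assigned. GI50 = concentration required for 50% inhibition of growth. TGI marks complete inhibition of growth.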
Experiments:
Experiment in all cases: inhibition of tumour cell growth, NCI panel, 48 h
COLO 205 colon = system: COLO 205 colon
HS 578T breast = system: HS 578T breast
OVCAR-3 ovarian = system: OVCAR-3 ovarian
PC-3 prostate = system: PC-3 prostate
SK-MEL-5 melanoma = system: SK-MEL-5 melanoma
SNB-19 CNS = system: SNB-19 CNS
SNB-75 CNS = system: SNB-75 CNS
TK-10 renal = system: TK-10 renal
U251 CNS = system: U251 CNS
UO-31 renal = system: UO-31 renal

Structure (SMILES) | GI50 (COLO 205 colon) | TGI (COLO 205 colon) | GI50 (HS 578T breast) | TGI (HS 578T breast) | GI50 (OVCAR-3 ovarian) | TGI (OVCAR-3 ovarian) | GI50 (PC-3 prostate) | TGI (PC-3 prostate) | GI50 (SK-MEL-5 melanoma) | TGI (SK-MEL-5 melanoma) | GI50 (SNB-19 CNS) | TGI (SNB-19 CNS) | GI50 (SNB-75 CNS) | TGI (SNB-75 CNS) | GI50 (TK-10 renal) | TGI (TK-10 renal) | GI50 (U251 CNS) | TGI (U251 CNS) | GI50 (UO-31 renal) | TGI (UO-31 renal)
COc1ccc(/C=C/C(=O)c2cc3c(N)c(C(=O)Nc4ccc(OC)cc4)sc3nc2C)cc1 | 0.158 µM | 0.609 µM | 0.211 µM | > 11.8 µM | 0.0276 µM | 1.96 µM | 0.434 µM | > 50 µM | 0.203 µM | 4.03 µM | 0.746 µM | > 41.3 µM | 0.344 µM | 2.21 µM | 2.85 µM | > 50 µM | 1.65 µM | > 30.9 µM | 0.988 µM | > 50 µM
CCOC1Oc2ccc(C)cc2C(=O)/C1=C\Nc1ccc(S(N)(=O)=O)cc1 (stereo not drawn) | 16.8 µM | 45.3 µM | 14.5 µM | 42.6 µM | 12.5 µM | 36.5 µM | 16.6 µM | > 50 µM | 7.79 µM | 17.3 µM | 16.1 µM | > 50 µM | 18.5 µM | > 50 µM | 15.7 µM | > 50 µM | 12.9 µM | > 50 µM | 13.7 µM | > 50 µM
Cc1ccc(OC(=O)N2C/C(=C\c3ccccc3)C(=O)/C(=C/c3ccccc3)C2)cc1 |  | > 100 µM |  | 76.5 µM |  | 37.4 µM |  | > 100 µM |  | > 57.3 µM |  | > 100 µM |  | 55.4 µM |  | > 87.9 µM |  | 38.6 µM |  | 85 µM
COc1ccc2c(c1)C(=O)c1c-2c(OCCN(C)C)nc2cc(OC)c(OC)cc12 | 11.5 µM | > 100 µM | 12.8 µM | 35.7 µM | 2.23 µM | 15.1 µM | 3.76 µM | 65.9 µM | 32.1 µM | > 100 µM | 2.28 µM | 31.5 µM | 8.65 µM | 26.1 µM | 13.9 µM | 27.5 µM | 3.08 µM | 19.1 µM | 0.658 µM | 9.37 µM
C[C@@H]1CCc2ncc(F)cc2[C@H]2CCCN2c2ccn3ncc(c3n2)C(=O)N1 | 75.9 µM | > 100 µM | 24.5 µM | > 100 µM | 88.6 µM | > 100 µM | > 100 µM | > 100 µM | > 100 µM | > 100 µM | > 100 µM | > 100 µM | 19.6 µM | 97 µM | 81.7 µM | > 100 µM | > 100 µM | > 100 µM | 29.8 µM | > 100 µM
CC1(C)C2CCC13C(=O)C1OC3(C2)C2C(=O)c3c(ccc4c3ccc3ccccc34)C(=O)C12 (stereo not drawn) | > 54 µM | > 100 µM | > 56.1 µM | > 100 µM | 40.7 µM | > 100 µM | > 66.5 µM | > 100 µM | 54.3 µM | > 100 µM | > 43.5 µM | > 100 µM | > 65.8 µM | > 100 µM | > 87.5 µM | > 100 µM | > 64.8 µM | > 100 µM | > 100 µM | > 100 µM
CC(O)[C@H](NC(=O)N[C@@H](CC(N)=O)c1nc(N2CCNCC2)no1)C(=O)O (stereo partly drawn) | > 100 µM | > 100 µM | > 100 µM | > 100 µM | > 100 µM | > 100 µM | > 100 µM | > 100 µM | > 100 µM | > 100 µM | > 100 µM | > 100 µM | > 100 µM | > 100 µM | > 100 µM | > 100 µM | > 100 µM | > 100 µM | > 100 µM | > 100 µM
CCn1c(-c2nonc2N)nc2cnc(Oc3cccc(NC(=O)c4ccc(N(C)C)cc4)c3)cc21 | > 13.5 µM | > 25 µM | 0.0623 µM | > 25 µM | > 25 µM | > 25 µM | 12.4 µM | > 25 µM | > 25 µM | > 25 µM | > 25 µM | > 25 µM | 0.106 µM | > 25 µM | 0.549 µM | > 21 µM | > 25 µM | > 25 µM | 0.0235 µM | > 18.8 µM
COc1cc2cc(Oc3cccc(NC(=O)Nc4cc(C(F)(F)F)cc(C(F)(F)F)c4)c3)c(C)nc2cc1OC | 1.79 µM | 3.58 µM | 2.65 µM | 6.94 µM | 0.488 µM | 1.7 µM | 0.423 µM | 2.48 µM | 1.62 µM | 3.28 µM | 0.654 µM | 2.16 µM | 1.73 µM | 5.05 µM | 2.32 µM | 9.18 µM | 1.08 µM | 2.47 µM | 0.266 µM | 1.65 µM
COc1cccc(-c2nc3sccn3c2-c2ccnc(NCCCNS(=O)(=O)c3ccccc3)c2)c1 | 3.01 µM | > 100 µM | 3.51 µM | > 100 µM | 3.3 µM | > 100 µM | 1.97 µM | 6.3 µM | 1.88 µM | 3.77 µM | 4.92 µM | > 100 µM | 1.55 µM | 8.08 µM | 4.27 µM | > 100 µM | 4.55 µM | > 100 µM | 2.07 µM | > 100 µM
COc1ccc(C2NC(=S)NC3=C2CCOc2c3ccc3ccccc23)cc1 (stereo not drawn) | 53.8 µM | > 100 µM | 47.4 µM | > 100 µM | 51.5 µM | > 100 µM | > 100 µM | > 100 µM | 18.2 µM | > 100 µM | > 100 µM | > 100 µM | 60.7 µM | > 100 µM | > 100 µM | > 100 µM | > 100 µM | > 100 µM | 98.3 µM | > 100 µM
COc1ccc(C2=Nn3c(nnc3-n3nc(C)cc3C)SC2)cc1 | 0.046 µM | 0.218 µM |  | > 100 µM | 0.0346 µM | 0.114 µM | 0.0453 µM | > 100 µM | 0.0489 µM | 4.23 µM | 0.0831 µM | > 100 µM | 0.0214 µM |  | 0.227 µM | > 100 µM | 0.0532 µM | > 100 µM | 0.212 µM | > 100 µM

From PubChem BioAssay (NCI)
